Results: article PMC7968329, “Triazoloacridone C-1305 impairs XBP1 splicing by acting as a potential IRE1α endoribonuclease inhibitor” (Cellular & Molecular Biology Letters, 2021)

Target: T1, IRE1α (Homo sapiens, UniProt O75460)
T1 construct: gene ERN1
Experiment: ADP-Glo luminescent kinase assay with purified IRE1
Assay type: biochemical

T1 sequence (O75460 19-977): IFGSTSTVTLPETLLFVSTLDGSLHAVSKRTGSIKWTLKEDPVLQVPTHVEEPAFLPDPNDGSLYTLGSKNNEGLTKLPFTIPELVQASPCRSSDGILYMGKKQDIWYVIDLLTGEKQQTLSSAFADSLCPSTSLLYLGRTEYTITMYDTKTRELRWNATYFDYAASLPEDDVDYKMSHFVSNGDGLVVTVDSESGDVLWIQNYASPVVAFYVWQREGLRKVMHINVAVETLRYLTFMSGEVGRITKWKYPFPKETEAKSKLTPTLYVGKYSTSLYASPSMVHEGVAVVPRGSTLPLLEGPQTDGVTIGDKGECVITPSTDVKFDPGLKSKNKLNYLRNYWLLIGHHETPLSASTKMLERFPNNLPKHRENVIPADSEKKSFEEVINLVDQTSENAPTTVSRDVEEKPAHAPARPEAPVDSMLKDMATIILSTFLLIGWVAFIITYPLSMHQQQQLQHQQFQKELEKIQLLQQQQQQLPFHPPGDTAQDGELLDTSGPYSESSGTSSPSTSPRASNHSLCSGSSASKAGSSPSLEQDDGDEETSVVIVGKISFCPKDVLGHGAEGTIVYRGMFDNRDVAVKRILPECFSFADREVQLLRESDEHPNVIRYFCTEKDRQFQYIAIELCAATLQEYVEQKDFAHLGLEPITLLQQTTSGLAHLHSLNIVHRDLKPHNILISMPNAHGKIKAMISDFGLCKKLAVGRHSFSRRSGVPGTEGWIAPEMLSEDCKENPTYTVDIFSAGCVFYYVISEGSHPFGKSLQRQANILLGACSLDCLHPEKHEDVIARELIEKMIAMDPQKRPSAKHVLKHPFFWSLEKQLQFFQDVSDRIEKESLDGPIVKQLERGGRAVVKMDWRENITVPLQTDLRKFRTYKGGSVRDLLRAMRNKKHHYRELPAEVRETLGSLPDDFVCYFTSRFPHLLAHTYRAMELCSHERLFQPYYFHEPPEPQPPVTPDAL

## Cc1cc(=O)oc2c(C=O)c(O)ccc12 [4µ8C, 7-Hydroxy-4-methyl-2-oxo-2H-chromene-8-carbaldehyde]
  IC50: 31.2 µM
